Results taken from article PMC4869678, “Synthesis and Evaluation of a 2,11‐Cembranoid‐Inspired Library” (Chemistry (Weinheim an Der Bergstrasse, Germany), 2016).
In brackets after ≈: the same amount, converted by molar mass. Values belong to the molecule of their own block, whether it stands above or below them.

Key:
[1] = Aqueous solubility by nephelometry; type: physicochemical; settings: aqueous medium (not further specified), kinetic from dmso stock, measured by nephelometry
Text: (§1) Due to a lack of UV chromophore and/or poor mass spectrometry ionisation, nephelometry46 was used to measure the solubility. PAMPA (parallel artificial membrane permeability assay)47 was used to assess the permeability.

[2] = test system: cancer cells; design: method as in PMID 20420415; settings: 50 µM; cited from earlier work
[3] = test system: L1210 mouse lymphocytic leukemia cells; design: method as in earlier work; settings: in vitro; cited from earlier work
[4] = test system: PC3 cells; settings: 50 µM; cited from earlier work
[5] = test system: PC3 cells; assay: SRB antiproliferative concentration-response assay; type: cell-based; settings: Homo sapiens, PC-3, in vitro 96 h assay, full dose response curve
Method: (§2) Figure 6 a) Concentration–response curve for the antiproliferative effect of compound 28 on PC3 cells in vitro 96 h assay. b) Compound 28 inhibiting the migration properties of PC3 TEM cancer cells. FCS=fetal calf serum.
Cells were seeded in 100μl medium into 96-well plates. After 36 hours, serial doubling dilutions of drug (or vehicle) were added to give the required dose range in sextuplicate across the plate. Cells were incubated for a further 96 hours. The medium was then removed and cells were fixed by adding 50μl of 10% (w/v) trichloroacetic acid (TCA) for one hour at room temperature. The plates were gently washed by immersion in tap water three times then air dried. 50μl of 0.4% (w/v) SRB in 1% (v/v) acetic acid was added to each well for one hour. […] Absorbance at 570nm was measured using a SPECTRAmax 340PC plate reader.
(§3) Cells in standard tissue culture flasks were fluorescently labelled by incubation with 1umol/L CellTracker Green 5-chloromethylfluorescein diacetate (Invitrogen, Paisley) concomitant with serum starvation for two hours. Following trypsinisation cells were counted and added to the upper wells of 8um pore FluoroblokTM membrane inserts in 24-well companion plates (BD Biosciences, Franklin Lakes, NJ). […] Cells which successfully migrated to the lower surface of the filter were visualised using an inverted fluorescence

[6] = test system: PC3 human prostate cancer cell line; assay: NCI panel growth inhibition, PC3 line; type: cell-based; settings: PC3, single concentration of 10 µM, 48 h, NCI screen, read-out: inhibition of proliferation
Method: A selection of fifteen of the cembranoid‐inspired compounds was screened against a panel of 60 cancer cell lines at the National Cancer Institute screening panel (see the Supporting Information).49 This cell‐based assay aims to discover compounds with a strong cytostatic or cytotoxic growth inhibition over 48 h. Unfortunately, only low levels (up to 20 %) of cell growth inhibition were seen when screened at a single concentration of 10 µM.

[7] = test system: PC3 TEM cancer cells; assay: Migration assay (Fluoroblok membrane, FCS chemotaxis); type: cell-based, human; settings: 3‐ and 5‐fold GI50 concentrations, FCS-stimulated migration
Method: as §2
Whereas cembranoid natural products may not be inherently cytotoxic, an appreciable number do display an ability to inhibit the migratory and invasive properties of cancer cells.50 The effect of compound 28 on a PC3‐based migratory assay was therefore determined.
Cells were seeded in 100μl medium into 96-well plates. After 36 hours, serial doubling dilutions of drug (or vehicle) were added to give the required dose range in sextuplicate across the plate. Cells were incubated for a further 96 hours. […] Absorbance at 570nm was measured using a SPECTRAmax 340PC plate reader.
as §3

[8] = Permeability across a Caco-2 monolayer; type: in vitro ADME, human; settings: human, read-out: permeability across a monolayer of Caco‐2 cells
[9] = test system: Caco‐2 human intestinal cancer cells; assay: Permeability across a Caco-2 monolayer; type: in vitro ADME
[10] = PAMPA (parallel artificial membrane permeability assay); type: in vitro ADME
Text: as §1

solubility [1]: 500 µM (≈ 111 µg/mL)
Compound: OC1CCC=CCC2OC1C1CCCCC21 (stereo not drawn) [Compound 76]

solubility [1]: 500 µM (≈ 131 µg/mL)
permeability (Pe) [10]: 25 ×10⁻⁶ cm/s
Compound: C=CCC1OC(COC(=O)C=CC)C2CC=CCC12 (stereo not drawn) [Compound 15]

The next lines start with the molecule.

Compound: C=C1CC[C@H](C(C)C)[C@@H]2[C@H]1[C@H]1C[C@](C)(O)[C@@H](O)CC[C@@](C)(O)[C@@H]2O1 [sclerophytin A]
inhibition of migration [2]: 85%
IC50 [3]: 0.003 µM
effect on proliferation [4]: no effect on proliferation

Compound: O=C1CCC/C=C/C[C@@H]2O[C@H](CO1)[C@H]1CCCC[C@H]12 [Compound 28]
GI50 [5]: 63 µM
inhibition at 10 µM [6]: 17%
effect on cell migration [7]: reduction to near basal levels of migration
solubility [1]: 550 µM (≈ 145 µg/mL)
Papp [8]: 16 ×10⁻⁶ cm/s
transporter efflux [9]: no evidence of transporter efflux
permeability (Pe) [10]: 52 ×10⁻⁶ cm/s

Compound: CC1(C)CCC(=O)OCC2OC1C1CCCCC21 (stereo not drawn) [Compound 65]
solubility [1]: 550 µM (≈ 139 µg/mL)
permeability (Pe) [10]: > 150 ×10⁻⁶ cm/s
